Results from US20240099973A1, “EXTRACELLULAR VESICLE COMPOSITIONS” (LONZA SALES AG, priority 2019, published 2024).

Assays:
IFNβ mRNA = IFNβ mRNA expression in liver after intravenous administration; type: in vivo, C57BL/6 mice; details: 20 μg intravenously; 4 hours
Description: The effect of administration of exosomes containing STING agonist CL656 on gene expression in C57BL/6 liver was investigated.
After thawing, exosomes in buffer B composition containing STING agonist CL656 was stored at 4° C. and 22° C. for 24 h or 72 h as described in Example 5. PBS, CL656 (20 μg), exosomes, or exosomes in buffer B containing STING agonist CL656 that incubated as described above (600 ng of CL656 per mouse) were administered into C57BL/6 mice intravenously. As a control, exosomes in buffer B composition containing STING agonist CL656 that were stored at −80° C. (6 ng, 60 ng, and 600 ng per mouse) were administered (considered as 0 h). After 4 hours, mice were euthanized and liver was collected. Total RNA was isolated from liver by using RNeasy Lipid Mini Kit (Qiagen) and expression level of IFNβ mRNA was determined by RT-qPCR. Relative expression was normalized against housekeeping gene RPS13. FIG. 3C provides the results from the liver study.

[1] = Intratumoral concentration of STING agonist in B16-F10 melanoma tumors; type: in vivo, C57BL/6 mice; details: 0.3 μg of CL656 intratumoral dose; after about 360 minutes
Description: The intratumoral concentration of STING agonist in Buffer B over time was investigated.
Briefly, B16-F10 melanoma cells were subcutaneously transplanted into C57BL/6 mice. When dermal tumors were visible, each animal received an intratumoral dose of either free STING agonist (0.3 μg of CL656) or exosome-encapsulated STING agonist (0.3 μg of CL656). Intratumoral concentration of free STING agonist and exosome-encapsulated STING agonist was measured at 5, 30, 120, 360, 1440, and 2880 minutes after injection. […] Further shown in FIG. 3D, the concentration of exosome-encapsulated STING agonist fell slowly to about 100 nM at 1440 minutes. Thereafter, the concentration of exosome-encapsulated STING agonist was steady at about 100 nM until the last measurement was taken at 2880 minutes.

intratumoral concentration [1]: not detectable
Compound: Nc1ncnc2c1ncn2[C@@H]1O[C@@H]2COP(=O)(S)O[C@H]3[C@@H](F)[C@H](n4cnc5c(=O)[nH]cnc54)O[C@@H]3COP(O)(=S)O[C@H]2[C@H]1F (some centres unmarked) [CL656]
IFNβ mRNA in liver (RT-qPCR, normalized against RPS13) (IFNβ mRNA): low level
